The results in this text go back to patent US20240174680A1, “CDK2 INHIBITORS AND METHODS OF USING THE SAME” (Cedilla Therapeutics, Inc., priority 2021, published 2024).

The target of the experiment is CDK2/Cyclin E1 (Homo sapiens, UniProt P24941). The experiment can be described thus: CDK2/Cyclin E1 Caliper LabChip EZ Reader mobility shift assay. Format: biochemical. Further details: purchased Eurofins 14-475. The settings on record: read-out: Caliper Assay (CDK2/CCNE1): IC50. The method, boiled down:
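Mobility-shift kinase assay: compound titrations preincubated 30 min with enzyme and ATP, reaction started with 5-FAM-QSPKKG-CONH2 peptide. Final 2.5 nM CDK2/Cyclin E1, 100 μM ATP, 1.5 μM peptide, HEPES pH 7.5; stopped with EDTA after 100 min. IC50 from four-parameter fit of normalized conversion ratio.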

On to `CNC(=O)C(NC(=O)[C@@H]1CN(C(=O)c2cn[nH]c2)CC12CN(C(=O)[C@H]1CC1(C)C)C2)C(O)Cc1ccccc1` (some centres unmarked) [I-298], for which the IC50 is greater than 10 µM.
The same measure for `CNC(=O)[C@@H](NC(=O)C1CN(C(=O)c2cnn(Cc3cccnc3)c2)CC12CN(C(=O)C1CC1(C)C)C2)[C@@H](C)OCc1ccccc1` (some centres unmarked) [I-15]: 0.1 to 1 µM; for `CNC(=O)[C@@H](NC(=O)[C@H]1CN(C(=O)c2cnn(CC3CCNCC3)c2)CC12CN(C(=O)[C@H]1CC1(C)C)C2)[C@@H](C)OCc1ccccc1` [I-19B]: greater than 10 µM; for `CNC(=O)[C@@H](NC(=O)C1(F)CN(C(=O)c2cnn(Cc3ccccc3)c2)CC12CN(C(=O)[C@H]1CC1(C)C)C2)[C@@H](C)OCC1CCCCC1` (some centres unmarked) [I-501]: 0.01 to 0.1 µM.
Then `CNC(=O)[C@@H](NC(=O)[C@H]1CN(C(=O)c2sc(C)nc2C)CC12CN(C(=O)[C@H]1CC1(C)C)C2)[C@@H](C)OCC1CCCCC1` [I-213B], with greater than 10 µM; and `C[C@@H](OCC1CCOCC1)[C@@H](COC1CCC(F)(F)CC1)NC(=O)[C@@H]1CN(C(=O)c2cncs2)CC12CN(C(=O)C(C)(C)C1CC1)C2` [I-333, (S)-2-(2-cyclopropyl-2-methylpropanoyl)-N-((2R,3R)-1-((4,4-difluorocyclohexyl)oxy)-3-((tetrahydro-2H-pyran-4-yl)methoxy)butan-2-yl)-6-(thiazole-5-carbonyl)-2,6-diazaspiro[3.4]octane-8-carboxamide], with 0.01 to 0.1 µM.
The same measure for `C[C@@H](OCc1ccccc1)[C@H](NC(=O)C1CN(C(=O)c2cnn(Cc3ccccc3)c2)CC12CN(C(=O)[C@H]1CC1(C)C)C2)C(=O)N1CCC(F)(F)CC1` (some centres unmarked) [I-85]: 0.01 to 0.1 µM; for `CC1(C)C[C@@H]1C(=O)N1CC2(CN(C(=O)c3cnn(Cc4ccccc4)c3)C[C@H]2C(=O)N2CCCC(Cc3ccccc3)C2)C1` (some centres unmarked) [I-91A]: greater than 10 µM.
`CNC(=O)[C@@H](NC(=O)[C@@H]1CN(C(=O)c2sc(C(C)C)nc2C)CC12CN(C(=O)[C@H]1CC1(C)C)C2)[C@@H](C)OCC1CCCCC1` [I-227A]: the IC50 was in the range of 0.1 to 1 µM.
With `CNC(=O)[C@@H](NC(=O)[C@H]1CN(C(=O)c2cnn(Cc3ccccc3)c2)CC12CN(C(=O)CC1CC1)C2)[C@@H](C)OCC1CCCCC1` [I-56B], the IC50 lay in the range of 1 to 10 µM.
The same measure for `CNC(=O)[C@@H](NC(=O)[C@@H]1CN(C(=O)c2cncs2)CC12CN(C(=O)[C@H]1CC1(C)C)C2)[C@@H](C)OC[C@H]1CC[C@@H](C)CC1` [I-354]: no more than 0.01 µM; for `CNC(=O)[C@@H](NC(=O)[C@@H]1CN(C(=O)c2cncs2)CC12CN(C(=O)[C@H]1CC1(C)C)C2)[C@@H](C)OCC12CCC(CC1)CC2` [I-289]: no more than 0.01 µM.
The same measure for `CNC(=O)[C@@H](NC(=O)[C@@H]1CN(C(=O)c2cncs2)CC12CN(CC1CCOC1)C2)[C@@H](C)OCC12CCC(CC1)OC2` (some centres unmarked) [I-345]: greater than 10 µM.
The same measure for `CNC(=O)[C@@H](NC(=O)[C@@H]1CN(C(=O)C2CCNC2)CC12CN(C(=O)[C@H]1CC1(C)C)C2)[C@@H](C)OCc1ccccc1` (stereo partly drawn) [I-70A, (8S)—N-((2S,3R)-3-(benzyloxy)-1-(methylamino)-1-oxobutan-2-yl)-2-((S)-2,2-dimethylcyclopropane-1-carbonyl)-6-(pyrrolidine-3-carbonyl)-2,6-diazaspiro[3.4]octane-8-carboxamide]: greater than 10 µM.
In the case of `CC(=O)N1C[C@@H](C(=O)N[C@H](C(=O)N2CCCCC2)[C@@H](C)OCC2CCCCC2)C2(C1)CN(C(=O)[C@H]1CC1(C)C)C2` [I-118], the IC50 was greater than 10 µM.
The same measure for `C[C@@H](OCC12CCC(CC1)OC2)[C@H](NC(=O)[C@@H]1CN(C(=O)c2cncs2)CC12CN(C(=O)C(C)(C)C1CC1)C2)C(C)(C)O` [I-334]: 0.1 to 1 µM.
Take `CNC(=O)[C@H](COCc1ccccc1)NC(=O)[C@@H]1CN(C(=O)c2cnn(Cc3ccccc3)c2)CC12CN(C(=O)C(C)(C)C)C2` [I-100A]: the IC50 is 1 to 10 µM.
Then `CNC(=O)[C@@H](NC(=O)[C@@H]1CN(Cc2cnn(Cc3ccccc3)c2)CC12CN(C(=O)[C@H]1CC1(C)C)C2)[C@@H](C)OCc1ccccc1` [I-16A], with greater than 10 µM; and `CNC(=O)[C@@H](NC(=O)[C@@H]1CN(C(=O)c2nccs2)CC12CN(C(=O)[C@H]1CC1(C)C)C2)[C@@H](C)OCC1CCCCC1` [I-169], with greater than 10 µM; and `CNC(=O)[C@@H](NC(=O)[C@@H]1CN(C(=O)c2cnn(Cc3ccccc3)c2)CC12CN(C(=O)[C@H]1CC1(C)C)C2)[C@@H](C)OCC1CCCC1` [I-110A], with 0.01 to 0.1 µM.
The same measure for `CC1(C)C[C@@H]1C(=O)N1CC2(CN(C(=O)c3cnn(Cc4ccccc4)c3)C[C@@H]2C(=O)N2CCCC(Cc3ccccc3)C2)C1` (some centres unmarked) [I-91B]: greater than 10 µM; for `COC(=O)C1(NC(=O)[C@H]2CN(C(=O)c3cnn(Cc4ccccc4)c3)CC23CN(C(=O)[C@H]2CC2(C)C)C3)COC1` [I-142A]: greater than 10 µM; for `CO[C@H]1COCC[C@@H]1NC(=O)[C@@H]1CN(C(=O)c2cnn(Cc3ccccc3)c2)CC12CN(C(=O)[C@H]1CC1(C)C)C2` [I-148A]: greater than 10 µM.
For `CNC(=O)[C@@H](NC(=O)[C@H]1CN(C(=O)c2cnn(Cc3ccccc3)c2)CC12CN(C(=O)C(C)(C)C)C2)[C@@H](C)OCC1CCCCC1` [I-174B], the IC50 lay in the range of 0.1 to 1 µM.
The same measure for `CNC(=O)[C@@H](NC(=O)[C@@H]1CN(C(=O)c2cnn(Cc3ccccc3)c2)CC12CN(C(=O)[C@H]1CC1(C)C)C2)[C@@H](C)OCc1cccnc1` [I-247]: 0.1 to 1 µM; for `C[C@@H](OCC1CCCCC1)[C@H](NC(=O)[C@@H]1CN(C(=O)c2cnn(Cc3ccccc3)c2)CC12CN(C(=O)[C@H]1CC1(C)C)C2)C(=O)N1CCC(F)(F)CC1` [I-149A]: no more than 0.01 µM.
Take `CC1(C)C[C@@H]1C(=O)N1CC2(CN(C(=O)c3cnn(Cc4ccccc4)c3)C[C@@H]2C(=O)NC2CCN(C(=O)c3ccccc3)CC2)C1` [I-61B]: the IC50 is greater than 10 µM.
Then `CNC(=O)[C@H](CCCc1ccccc1)NC(=O)[C@@H]1CN(C(=O)c2cnn(Cc3ccccc3)c2)CC12CN(C(=O)[C@H]1CC1(C)C)C2` [I-101A], with 0.1 to 1 µM.
Then `CC1(C)C[C@@H]1C(=O)N1CC2(CN(C(=O)c3cnn(Cc4ccccc4)c3)C[C@@H]2C(=O)N[C@H]2CCc3cc(Cl)ccc32)C1` [I-133B], with 1 to 10 µM; and `COC[C@H]1CCCN(C(=O)[C@@H](NC(=O)[C@@H]2CN(C(=O)c3cncs3)CC23CN(C(=O)[C@H]2CC2(C)C)C3)[C@@H](C)OC[C@H]2CC[C@H](N)CC2)C1` [I-433], with 1 to 10 µM; and `CNC(=O)[C@@H](NC(=O)[C@H]1CN(C(=O)c2cnn(Cc3ccccc3)c2)CC12CN(C(=O)C1C(C)(C)C1(C)C)C2)[C@@H](C)OCc1ccccc1` [I-89B], with greater than 10 µM.
The same measure for `C[C@@H](OCC1CCC(F)(F)CC1)[C@@H](COC1CCOCC1)NC(=O)[C@@H]1CN(C(=O)c2cncs2)CC12CN(C(=O)[C@H]1CC1(C)C)C2` [I-314]: no more than 0.01 µM; for `COC[C@H]1CCCN(C(=O)[C@@H](NC(=O)[C@@H]2CN(C(=O)c3cnn(Cc4ccccc4)c3)CC23CN(C(=O)[C@H]2CC2(C)C)C3)[C@@H](C)OC)C1` [I-283]: 1 to 10 µM; for `CNC(=O)[C@@H](NC(=O)[C@H]1CN(C(=O)c2n[nH]c3ccccc23)CC12CN(C(=O)[C@H]1CC1(C)C)C2)[C@@H](C)OCc1ccccc1` [I-112B]: greater than 10 µM.
With `CC1(C)C[C@@H]1C(=O)N1CC2(CN(C(=O)c3cnn(Cc4ccccc4)c3)C[C@H]2C(=O)N[C@H]2CCCN(C(=O)C3CCCCC3)C2)C1` [I-182], the IC50 was in the range of 1 to 10 µM.
